Source: patent US4749571A, “Physiologically-active novel substance "Aldostatin" and production method thereof” (Toyo Jozo Co., Ltd., priority 1986, dated 1988)

Experiments:
aldose reductase = molecular target: T1, aldose reductase (Bos taurus, UniProt P16116); assay: Aldose reductase inhibitory activity; assay type: biochemical, bovine (lenses); settings: partially purified bovine lens enzyme
T1 construct: partially purified aldose reductase derived from bovine lenses; from tissue; host or cells: bovine lenses
Procedure: The preparation of an aldose reductase and the quantitative analysis of its enzymatic activity were effected in accordance with the method described by Hayman et al. in "Journal of Biological Chemistry" 240, 877 (1965). It was a partially purified aldose reductase derived from bovine lenses that was employed as an enzyme. Placed in a quartz cell in a spectrophotometer photometer was 2.4 ml of a 5×10^- 5M NADPH solution dissolved in 2/15M phosphate buffer (pH 6.0), 0.4 ml of 15 milli-units/ml solution of the enzyme and 0.1 ml of an aqueous aldostatin of one of various concentration. The contents were pre-incubated at 37° C. for 4 minutes. […] The reduction of the absorbance at 340 nm was traced at 37° C. for 4 minutes. At that time, the value (B) of tan θ was determined. Similarly, the reduction of the absorbance at 340 nm without addition of the inhibitor "aldostatin" was tracked. At that time, the value (A) of tan θ was determined. Percent inhibition (%) was calculated as follows. [formula]
The amount of inhibitor for 50% inhibition was expressed as IC50.

mice = assay: Acute toxicity; assay type: in vivo; settings: i.v., dose of 200 mg/kg
Solubility = assay type: physicochemical

## O=CN[C@@H](Cc1ccc(O)c(-c2cc(C[C@H](NC=O)C(=O)O)ccc2O)c1)C(=O)O [aldostatin]
Aldose reductase; substrate glucose (5.0 × 10^-2 M)
  IC50: 2.64 µM
Aldose reductase; substrate glyceraldehyde (5.0 × 10^-4 M), NADPH, pH 6.0, 37° C.
  IC50: 1.2 µM
mice
  toxic effect (acute toxicity): no toxic effect
Solubility; acetone
  solubility: slightly soluble
Solubility; benzene
  solubility: insoluble
Solubility; chloroform
  solubility: slightly soluble
Solubility; dimethylsulfoxide
  solubility: soluble
Solubility; ethyl acetate
  solubility: slightly soluble
Solubility; hexane
  solubility: insoluble
Solubility; methanol
  solubility: soluble
Solubility; petroleum ether
  solubility: insoluble
Solubility; water
  solubility: soluble
